Experimental data published in US4952580A, “Pesticidal polyhaloalkene derivatives” (priority 1988, dated 1990).
Where two headings read alike, the source gives them in different places.

How the values were obtained:
root-knot nematode [1] = test: Soil Mobility against root-knot nematode; type: in vivo, Meloidogyne incognita; conditions: 336 h
Method in brief: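 Soil mobility of the nematicidal test material was evaluated by placing treated, nematode-infested soil in 8 cm plastic pots stacked above two or more pots of untreated infested soil, each containing a 10 cm^3 sand layer and filter paper discs. Fifteen cm of water was dripped through, pots drained 16-18 hours, then were planted with cucumber or tomato seedlings and scored for Percent Control.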

[2] = system: root-knot nematode (Meloidogyne incognita); test: Initial Root-Knot Nematicidal Activity; type: in vivo; conditions: 336 h, read-out: Percent Control; for pest or weed control at 0.313 ppm: Table 2, Application Rate 0.313 ppm; for pest or weed control at 0.625 ppm: Table 2, Application Rate 0.625 ppm; for pest or weed control at 1.25 ppm: Table 2, Application Rate 1.25 ppm; for pest or weed control at 5 ppm: Table 2, Application Rate 5.0 ppm; for pest or weed control at 10 ppm: Table 2, Application Rate 10.0 ppm; for pest or weed control at 0.312 ppm: Table 2, Application Rate 0.312 ppm; for pest or weed control at 0.078 ppm: Table 2, Application Rate 0.078 ppm
Method in brief: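 Compound incorporated into Meloidogyne incognita-infested soil at 10 ppm to 0.078 ppm, then planted with tomato or cucumber seedlings. Root galling scored two weeks after planting as a knot index and converted to percent control, given as averages.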

cyst nematode = test: Cyst Nematode Test; type: in vivo; conditions: read-out: Percent Control; for pest or weed control at 5 ppm: Table 6, rate 5 ppm
Method: (§1) Compounds of this invention were tested as follows for nematicidal and anthelmintic activity as dust formulations (initial and residual activity) and as acetone/water formulations (systemic activity). The formulations are described above.
The procedures was substantially the same as described in the stunt nematode test except soybean seedlings were used. "Percent Control" (Table 6 appended) is as defined in the stunt nematode test results.

root-knot nematode [3] = test: Residual Root-Knot Nematicidal Activity; type: in vivo, Meloidogyne incognita; conditions: read-out: Percent Control
Method: as §1
The ability of nematicidal compounds of the invention to control root-knot nematode infestations in soil over a period of time after treatment was evaluated. Dust formulations of test compound (5%) were incorporated into soil samples at test compound rates of 5 and 10 ppm. Subsequently, the treated soil samples were inoculated with nematode inoculum at weekly intervals, and Knot Index and Percent Control determined on seedlings planted in the soil samples. Specifically, soil treated with test compound was placed in 7.6 cm diameter fiber pots and stored in a greenhouse. At one, two and four weeks post-treatment, the appropriate number of pots was infested with root-knot nematode eggs and larvae. A cucumber or tomato seedling was planted in each pot and evaluated approximately two weeks after the soil infestation to obtain the test results reported in Tables 3 and 3a appended.

lesion nematode = test: Lesion Nematode Test; type: in vivo; conditions: Table 5, read-out: Percent Control; for pest or weed control at 2.5 ppm: rate 2.5 ppm; for pest or weed control at 5 ppm: rate 5 ppm
Method in brief: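 Run as the stunt nematode test but on pea seedlings; compounds applied as dust formulations (initial and residual activity) or acetone/water formulations (systemic activity), with untreated samples as reference. Percent control derived by formula.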

stunt nematode = test: Stunt Nematode Test; type: in vivo; conditions: 672 h, rate 5 ppm, read-out: Percent Control
Method: as §1
The procedure was substantially the same as in the […] seedling, with subsequent inoculation of the soil with combined larvae and adult stunt nematodes. The samples were evaulated approximately four weeks after infestation. […] "Percent control" means the difference between average population counts between untreated and treated samples, divided by average population count of untreated sample, multiplied by 100.

Caenorhabditis elegans = test: C. Elegans Nematode Screening Test and Evaluation (in-vitro); conditions: Caenorhabditis elegans; for inhibition at 5 ppm / inhibition at 1.25 ppm / inhibition at 2.5 ppm: read-out: Percent Inhibition of Reproduction; for mortality at 5 ppm / mortality at 1.25 ppm / mortality at 2.5 ppm: read-out: Percent Mortality
Method: This in-vitro test using the free-living nematode Caenorhabditis elegans, is a modification of the assay developed by Simpkin and Coles, J. Chem. Tech. […] One milliliter of a test medium consisting of 5 mg ampicillin, 10,000 units of mycostatin and 10 ml of a dense suspension of Escherichia coli per 100 ml of a buffer solution, was pipetted into each well of a 24-well microtiter plate. The candidate nematicide, suspended at the appropriate concentration in dimethylsulfoxide, was added to the wells in […] volumes. Each rate of application was replicated two to three times. After thorough mixing of the contents of each well, 50 to 100 μl of a nematode suspension in a buffer was added so that each well received 10-15 nematodes. After the nematodes were added, the microtiter plates were incubated at 20° C. for 5-6 days.
The effect of the candidate nematicide on the survival and the reproduction of C. elegans was then evaluated by comparison of the level of population developed in the treated wells with that in untreated wells. Specific effects on population development, such as reduced egg hatch or molting disruption, were noted if they were evident.

root-knot nematode [4] = test: Systemic Activity (basipetal, foliar spray) against root-knot nematode; type: in vivo, Meloidogyne incognita; conditions: foliar, 336 h, Table 8, rate 2000 ppm, read-out: Percent Control
Method: as §1
Compounds of the invention were tested for basipetal systemic activity against the root-knot nematode. In this test, tomato plants are grown in 10.2 cm diameter fiber pots containing steam-pasteurized soil mix (50%, soil, 50% sand) until 4-6 true leaves appear. Three of the pots are then placed on a turntable in a spray hood and the plants sprayed with 50 ml of water/acetone solution containing the test compound. The soil surface is covered during the spraying to prevent spraying of the soil. After treatment, the potted plants are placed in a lighted drying chamber. The plants are then grown in a growth chamber at 25° C. for three days and inoculated with a standard nematode culture by incorporating the inoculum into the top cm of soil in the pots. The plants are returned to the growth chamber for about two weeks at which time the pots are allowed to dry until the plants begin to wilt. The roots are shaken free of soil and the degree of galling (swelling) noted as compared to galling of untreated control plants. The results are expressed as Knot Index and Percent Control as defined in the initial root-knot nematode activity tests reported above in Table 2.

[5] = Table 7, 30 ppm, Bottom container, read-out: Percent Control
[6] = Table 7, 30 ppm, Middle container, read-out: Percent Control
[7] = Table 7, 30 ppm, Top container, read-out: Percent Control
[8] = Table 2, Application Rate 2.5 ppm
[9] = 168 h, Table 3, inoculation 1 week after treatment
[10] = 336 h, Table 3, inoculation 2 weeks after treatment
[11] = 672 h, Table 3, inoculation 4 weeks after treatment
[12] = Table 7a, 5% dust, 5 ppm, BOTTOM container, read-out: Percent Control
[13] = Table 7a, 5% dust, 5 ppm, MIDDLE container, read-out: Percent Control
[14] = Table 7a, 5% dust, 5 ppm, TOP container, read-out: Percent Control
[15] = 168 h, Table 3a, 5% dust, inoculation 1 week post-treatment
[16] = 336 h, Table 3a, 5% dust, inoculation 2 weeks post-treatment
[17] = 672 h, Table 3a, 5% dust, inoculation 4 weeks post-treatment

## O=C(OCCC(F)=C(F)F)c1ccc([N+](=O)[O-])o1 [Compound 21, (3,4,4-trifluoro-3-butenyl) 5-nitro-2-furancarboxylate]
root-knot nematode [1]; [5]
  pest or weed control at 30 ppm: 99%
root-knot nematode [1]; [6]
  pest or weed control at 30 ppm: 96%
root-knot nematode [1]; [7]
  pest or weed control at 30 ppm: 100%
[2]
  pest or weed control at 0.313 ppm: 0%
  pest or weed control at 0.625 ppm: 8%
  pest or weed control at 1.25 ppm: 31%
[2]; [8]
  pest or weed control at 2.5 ppm: 64%
Cyst nematode
  pest or weed control at 2.5 ppm: 33%
root-knot nematode [3]; [9]
  pest or weed control at 5 ppm: 13%
root-knot nematode [3]; [10]
  pest or weed control at 5 ppm: 8%
root-knot nematode [3]; [11]
  pest or weed control at 5 ppm: 0%
Lesion nematode
  pest or weed control at 2.5 ppm: 54%

## CSc1nnc(SCCC(F)=C(F)F)s1 [Compound 2, 2-methylthio-5-(3,4,4-trifluoro-3-butenylthio)-1,3,4-thiadiazole]
root-knot nematode [1]; [5]
  pest or weed control at 30 ppm: 25%
root-knot nematode [1]; [7]
  pest or weed control at 30 ppm: 42%
root-knot nematode [1]; read-out: Percent Control, Table 7, 30 ppm, Middle container
  pest or weed control at 30 ppm: 33%
Stunt nematode; Table 4
  pest or weed control at 5 ppm: 72%
[2]
  pest or weed control at 0.313 ppm: 38%
  pest or weed control at 0.625 ppm: 84%
  pest or weed control at 1.25 ppm: 86%
  pest or weed control at 5 ppm: 96%
  pest or weed control at 10 ppm: 100%
  pest or weed control at 2.5 ppm: 95%
[2]; [8]
  pest or weed control at 2.5 ppm: 96%
Cyst nematode
  pest or weed control at 5 ppm: 70%
root-knot nematode [3]; [9]
  pest or weed control at 5 ppm: 98%
  pest or weed control at 10 ppm: 77%
root-knot nematode [3]; [10]
  pest or weed control at 5 ppm: 38%
  pest or weed control at 10 ppm: 56%
root-knot nematode [3]; [11]
  pest or weed control at 5 ppm: 42%
  pest or weed control at 10 ppm: 69%
Lesion nematode
  pest or weed control at 5 ppm: 0%

## O=C(CSCCC(F)=C(F)F)OCCC(F)=C(F)F [Compound 18, (3,4,4-trifluoro-3-butenyl) (3,4,4-trifluoro-3-butenylthio)acetate]
root-knot nematode [1]; [5]
  pest or weed control at 30 ppm: 25%
root-knot nematode [1]; [6]
  pest or weed control at 30 ppm: 25%
root-knot nematode [1]; read-out: Percent Control, Table 7, 30 ppm, Top container
  pest or weed control at 30 ppm: 33%
[2]
  pest or weed control at 0.313 ppm: 0%
  pest or weed control at 0.625 ppm: 19%
  pest or weed control at 1.25 ppm: 38%
  pest or weed control at 5 ppm: 99%
  pest or weed control at 10 ppm: 100%
Cyst nematode
  pest or weed control at 5 ppm: 8%
root-knot nematode [3]; [9]
  pest or weed control at 10 ppm: 0%
root-knot nematode [3]; [10]
  pest or weed control at 10 ppm: 0%
root-knot nematode [3]; [11]
  pest or weed control at 10 ppm: 0%
Lesion nematode
  pest or weed control at 5 ppm: 0%

## FC(F)=C(F)CCSc1nsc(SCCC(F)=C(F)F)n1 [Compound 25, 3,5-di(3,4,4-trifluoro-3-butenylthio)-1,2,4-thiadiazole]
root-knot nematode [1]; [12]
  pest or weed control at 5 ppm: 8%
root-knot nematode [1]; [13]
  pest or weed control at 5 ppm: 69%
root-knot nematode [1]; [14]
  pest or weed control at 5 ppm: 100%
[2]
  pest or weed control at 0.312 ppm: 78%
  pest or weed control at 0.625 ppm: 97%
  pest or weed control at 1.25 ppm: 97%
[2]; [8]
  pest or weed control at 2.5 ppm: 99%
Caenorhabditis elegans; Table 9 screen
  inhibition at 5 ppm: 100%
  mortality at 5 ppm: 75%
Caenorhabditis elegans; Table 10 evaluation
  mortality at 5 ppm: 100%
  inhibition at 1.25 ppm: 17%
  mortality at 1.25 ppm: 0%
  inhibition at 2.5 ppm: 58%
  mortality at 2.5 ppm: 0%
Cyst nematode
  pest or weed control at 5 ppm: 83%
root-knot nematode [3]; [15]
  pest or weed control at 5 ppm: 100%
root-knot nematode [3]; [16]
  pest or weed control at 5 ppm: 97%
root-knot nematode [3]; [17]
  pest or weed control at 5 ppm: 98%
Lesion nematode
  pest or weed control at 2.5 ppm: 77%

## FC(F)=C(F)CCSc1nc(Cl)ns1 [Compound 8, 3-chloro-5-(3,4,4-trifluoro-3-butenylthio)-1,2,4-thiadiazole]
root-knot nematode [1]; Table 7, 5 ppm, Bottom container, read-out: Percent Control
  pest or weed control at 5 ppm: 96%
root-knot nematode [1]; Table 7, 5 ppm, Middle container, read-out: Percent Control
  pest or weed control at 5 ppm: 100%
root-knot nematode [1]; Table 7, 5 ppm, Top container, read-out: Percent Control
  pest or weed control at 5 ppm: 100%
[2]
  pest or weed control at 0.078 ppm: 58%
  pest or weed control at 0.312 ppm: 100%
  pest or weed control at 0.625 ppm: 100%
  pest or weed control at 1.25 ppm: 100%
  pest or weed control at 0.156 ppm: 95%
[2]; [8]
  pest or weed control at 2.5 ppm: 100%
Cyst nematode
  pest or weed control at 5 ppm: 92%
root-knot nematode [3]; [11]
  pest or weed control at 5 ppm: 98%

## FC(F)=C(F)CCSc1nnc(SCc2ccccc2)s1 [Compound 32, 2-phenylmethylthio-5-(3,4,4-trifluoro-3-butenylthio)-1,3,4-thiadiazole]
root-knot nematode [4]
  pest or weed control at 2000 ppm: 25%
root-knot nematode [1]; [12]
  pest or weed control at 5 ppm: 25%
root-knot nematode [1]; [13]
  pest or weed control at 5 ppm: 75%
root-knot nematode [1]; [14]
  pest or weed control at 5 ppm: 99%
Stunt nematode; Table 4a
  pest or weed control at 5 ppm: 84%
[2]
  pest or weed control at 0.078 ppm: 8%
  pest or weed control at 0.312 ppm: 78%
  pest or weed control at 0.625 ppm: 97%
  pest or weed control at 1.25 ppm: 99%
[2]; Table 2, Application Rate 0.156 ppm
  pest or weed control at 0.156 ppm: 31%
[2]; [8]
  pest or weed control at 2.5 ppm: 100%
Caenorhabditis elegans; Table 9 screen
  inhibition at 5 ppm: 100%
  mortality at 5 ppm: 100%
Caenorhabditis elegans; Table 10 evaluation
  mortality at 5 ppm: 8%
  inhibition at 1.25 ppm: 25%
  mortality at 1.25 ppm: 0%
  inhibition at 2.5 ppm: 42%
  mortality at 2.5 ppm: 0%
root-knot nematode [3]; [15]
  pest or weed control at 5 ppm: 99%
root-knot nematode [3]; [16]
  pest or weed control at 5 ppm: 99%
root-knot nematode [3]; [17]
  pest or weed control at 5 ppm: 82%
Lesion nematode; rate 1.25 ppm
  pest or weed control at 1.25 ppm: 0%
Lesion nematode
  pest or weed control at 2.5 ppm: 28%
Lesion nematode; rate .625 ppm
  pest or weed control at 0.625 ppm: 0%
